From US11440923B2, “Substituted macrocyclic indole derivatives” (Bayer Aktiengesellschaft, priority 2017, dated 2022)
pEC50, pIC50: −log10 of the molar value. Where a name gives a salt, the structure may show the parent alone. Read-outs that look alike come from different tables or passages of the source.

How the values were obtained:
SUDHL10 cells = test: Induction of caspase-3/7 activity in SUDHL10 cells (Assay 4); format: cell-based
How it was run: (§1)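 Caspase-3/7 activity measured in DLBCL lines after 3 h compound exposure at 37 °C, following overnight plating; Caspase-Glo 3/7 luminescence read after 1 h at 37 °C. Medium-only background subtracted, values normalized to mean of DMSO-treated cells.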

BCL-2 = BCL-2 (Homo sapiens (Human), UniProt P10415); test: Protein-protein interaction assay BCL-2/Bad BH3 peptide (BCL-2 assay, TR-FRET); format: binding; conditions: read-out: BCL-2 Assay IC50 (median)
How it was run: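 His-tagged BCL-2 (aa 1-211, E. coli, 1 nM) preincubated 10 min at 22° C with compound (0.1 nM-20 μM), then 1 nM biotinylated Bad BH3 peptide with anti-His-Eu/streptavidin-XL665 added. Buffer: 50 mM Tris pH 7, 100 mM NaCl, 50 mM KF, 2 mM DTT. Incubated 1 h at 22° C, then overnight at 4° C. 665/620 ratio normalized; IC50 by 4-parameter fit.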

SUDHL5 cells [1] = test: Induction of caspase-3/7 activity in SUDHL5 cells (Assay 4); format: cell-based
How it was run: as §1

SUDHL5 cells [2] = test: Antiproliferation assay SUDHL5 (Assay 7); format: cell-based
How it was run: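 Cell proliferation was measured with CellTiter-Glo luminescence after 72 h compound exposure at 37 °C. A day 0 reference plate, read after overnight incubation, set the time-zero value. IC50s were calculated relative to day 0 (CI) and DMSO control (C0) values.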

[3] = read-out: Caspase SUDHL10 EC50 (median); caspase-3/7 induction, 3 h
[4] = read-out: Caspase SUDHL5 EC50 (median); caspase-3/7 induction, 3 h
[5] = read-out: Antiproli SUDHL5 IC50 (median); 72 h, CellTiter-Glo

Chain of BCL-2 (P10415 1-211): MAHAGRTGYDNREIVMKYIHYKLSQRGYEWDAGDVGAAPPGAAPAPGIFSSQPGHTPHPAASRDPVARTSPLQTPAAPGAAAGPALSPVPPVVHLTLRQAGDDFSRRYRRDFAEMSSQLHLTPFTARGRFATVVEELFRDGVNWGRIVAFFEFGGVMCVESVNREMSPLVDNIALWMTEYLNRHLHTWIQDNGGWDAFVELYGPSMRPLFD

| pEC50 (SUDHL10 cells; [3]) | pIC50 (BCL-2) | pEC50 (SUDHL5 cells [1]; [4]) | pIC50 (SUDHL5 cells [2]; [5]) | pEC50 (SUDHL10 cells; caspase-3/7 induction, 3 h; read-out: Caspase SUDHL10 EC50 (median)) | pEC50 (SUDHL5 cells [1]; caspase-3/7 induction, 3 h; read-out: Caspase SUDHL5 EC50 (median)) | pIC50 (SUDHL5 cells [2]; 72 h, CellTiter-Glo; read-out: Antiproli SUDHL5 IC50 (median)) | Structure (SMILES) |
| --- | --- | --- | --- | --- | --- | --- | --- |
| 5.60 | < 4.70 | 5.92 | 5.46 |  |  |  | Cc1c2c(nn1C)C(C)OCCCCn1c(C(=O)O)c(CCCOc3cccc4ccccc34)c3cccc-2c31 (single isomer, unassigned; stereoisomer 1) [Example 2, 2,3,15-trimethyl-7-[3-(naphthalen-1-yloxy)propyl]-2,10,11,12,13,15-hexahydropyrazolo[4′,3′:9,10][1,6]oxazacycloundecino[8,7,6-hi]indole-8-carboxylic Acid Trifluoroacetic Acid Salt (Stereoisomer 1)] |
| < 4.48 | < 4.70 | < 4.48 | 4.70 |  |  |  | Cc1c2c(nn1C)C(C)OCCCCn1c(C(=O)O)c(CCCOc3cccc4ccccc34)c3cccc-2c31 (single isomer, unassigned; stereoisomer 2) [Example 3, 2,3,15-trimethyl-7-[3-(naphthalen-1-yloxy)propyl]-2,10,11,12,13,15-hexahydropyrazolo[4′,3′:9,10][1,6]oxazacycloundecino[8,7,6-hi]indole-8-carboxylic Acid Trifluoroacetic Acid Salt (Stereoisomer 2)] |
|  | < 4.70 |  |  | 4.51 | 4.66 | 5.09 | Cc1c2c(nn1C)C(CCN1CCOCC1)OCCCCn1c(C(=O)O)c(CCCOc3cccc4ccccc34)c3cccc-2c31 (single isomer, unassigned; stereoisomer 2) [Example 6, 2,3-dimethyl-15-[2-(morpholin-4-yl)ethyl]-7-[3-(naphthalen-1-yloxy)propyl]-2,10,11,12,13,15-hexahydropyrazolo[4′,3′:9,10][1,6]oxazacycloundecino[8,7,6-hi]indole-8-carboxylic Acid (Stereoisomer 2)] |
